According to patent US20250359548A1, “METHODS OF IMPROVING STRESS TOLERANCE, GROWTH AND YIELD IN PLANTS” (Valent BioSciences LLC, priority 2020, published 2025):

Key:
Assay type in all cases: in vivo
[1] = tested on: Apogee wheat; experiment: Example 4: grain yield in Apogee wheat under water stress, dose combinations; conditions: drought stress
Protocol: (§1) To determine if the mixtures provided unexpected results, the observed combined efficacy (“OCE”) was divided by the expected combined efficacy (“ECE”) to give an OCE/ECE ratio wherein the expected ECE is calculated by a variation of the Abbott method:
(§2) [formula] • wherein ECE is the expected combined efficacy and in which X is the control efficacy and A and B are the efficacy provided by the single active ingredients. If the ratio between the OCE of the mixture and the ECE of the mixture is greater than 1, then greater than expected interactions are present in the mixture. (Gisi, The American Phytopathological Society, 86:11, 1273-1279, 1996).
72 pots of Apogee wheat were grown in a greenhouse under ideal growing conditions. Specifically, wheat was planted in ProMix® growth media and grown for about seven weeks in a growth cabinet at 24/18° C. day/night temperature under a 16/8 hour light/dark photoperiod. Next, spray applications of 0.025% v/v Latron B-1956® in water, 10 ppm ABA, 30 ppm ABA, 5 ppm CPPU, 10 ppm CPPU, a mixture of 10 ppm ABA and 5 ppm CPPU, a mixture of 30 ppm ABA and 5 ppm CPPU, a mixture of 10 ppm ABA and 10 ppm CPPU and a mixture of 30 ppm ABA and 10 ppm CPPU (n=8) were made using a tank sprayer at Feekes stage 11.0. Plants were then grown with no additional water for next 3-5 until drought stress conditions and water-deficit stress related phenotype was apparent. Plants were re-watered to bring soil moisture to saturation and grown under optimal conditions until physiological maturity. Plants were then destructively harvested and measured for spike weight, grain yield, yield per spike and total above ground biomass.

[2] = tested on: rice; experiment: Example 5: grain yield in rice (spray at R6)
Protocol: as §1, §2
32 pots of rice were grown in a greenhouse under ideal growing conditions. Specifically, rice was planted in growth media comprising sand and Pro-Mix® BX and grown for about 3-4 weeks in a growth cabinet at 24/18° C. day/night temperature under a 18/6 hour light/dark photoperiod. Next, spray applications of 0.025% v/v Latron B-1956® in water, 30 ppm ABA, 10 ppm CPPU, and a mixture of 30 ppm ABA and 10 ppm CPPU (n=8) were made using a tank sprayer at early grain filling stage (growth stage R6). Plants were then grown under ideal conditions for an additional 5-7 weeks. Plants were then destructively harvested and measured for yield of top six panicles, yield from other panicles (not top six panicles), yield of all panicles, yield per panicle and yield per top six panicles.

[3] = tested on: Apogee wheat; experiment: Example 1: grain yield in Apogee wheat under water stress (greenhouse pots, spray at Feekes 11.0); conditions: drought stress
Protocol: 42 pots of Apogee wheat were grown in a greenhouse under ideal growing conditions. Specifically, wheat was planted in ProMix® growth media and grown for about-seven weeks in a growth cabinet at 24/18° C. day/night temperature under a 16/8 hour light/dark photoperiod. Next, spray applications of 0.025% v/v Latron B-1956® in water, 30 ppm ABA, 30 ppm 6BA, 10 ppm CPPU, a mixture of 30 ppm ABA and 30 ppm 6BA and a mixture of 30 ppm ABA and 10 ppm CPPU (n=7) were made using a tank sprayer at Feekes stage 11.0. Plants were then grown with no additional water for next 3-5 days until drought stress conditions and water-deficit stress-related phenotypes were apparent. Specifically, drought stress conditions are determined as when pots have lost 60-70% of stored soil water, as determined by determined gravimetrically by weighing pots, through evapotranspiration and water-deficit stress-related phenotypes include wilting and leaf-rolling. Plants were re-watered to bring soil moisture to saturation and subsequently grown under optimal conditions until physiological maturity. Plants were then destructively harvested and measured for spike weight, grain weight, yield per spike and harvest index. Harvest index is calculated by dividing pounds of grain by the total pounds of above ground biomass.
as §1, §2

[4] = tested on: Apogee wheat; experiment: Example 3: grain yield in Apogee wheat under well-watered conditions, two sprays
Protocol: as §1, §2
32 pots of Apogee wheat were grown in a greenhouse under ideal growing conditions. Specifically, wheat was planted in ProMix® growth media and grown for about seven weeks in a growth cabinet at 24/18° C. day/night temperature under a 16/8 hour light/dark photoperiod. Next, spray applications of 0.025% v/v Latron B-1956® in water, 30 ppm ABA, 10 ppm CPPU, and a mixture of 30 ppm ABA and 10 ppm CPPU (n=8) were made using a tank sprayer at Feekes stage 11.0. A second chemical spray application was made seven days after first spray. Plants were then grown under ideal conditions for an additional 5-6 weeks until they reached physiological maturity. Plants were then destructively harvested and measured for spike weight, grain yield, yield per spike and total above ground biomass.

[5] = tested on: Corn; experiment: Example 7: grain yield in field corn, Seymour IL 2020
Protocol: Corn was grown in the field in Seymour, IL in 2020. Spray applications of water, 2 g/HA ABA, 6 g/HA ABA and a mixture of 2 g/HA ABA and 2 g/HA 6BA (n=8) were made using a tank sprayer at the blister to milk stage (growth stage R2-R3). Plants were then grown until mature. Plants were then destructively harvested and measured for grain yield.

[6] = tested on: rice; experiment: Example 6: grain yield in rice (spray at R5 to R6); conditions: 30 ppm spray at R5 to R6
Protocol: as §1, §2
48 pots of rice were grown in a greenhouse under ideal growing conditions. Specifically, rice was planted in growth media comprising sand and Pro-Mix® BX and grown for about 3-4 weeks in a growth cabinet at 24/18° C. day/night temperature under a 18/6 hour light/dark photoperiod. Next, spray applications of 0.025% v/v Latron B-1956® in water, 30 ppm ABA, 30 ppm 6BA, 45 ppm 6BA, a mixture of 30 ppm ABA and 30 ppm 6BA, and a mixture of 30 ppm ABA and 45 ppm 6BA (n=8) were made using a tank sprayer at early grain filling stage (growth stage R5 to R6). Plants were then grown under ideal conditions for an additional 5-7 weeks. Plants were then destructively harvested and measured for yield of top six panicles, yield from other panicles (not top six panicles), yield of all panicles, yield per panicle and yield per top six panicles.

[7] = tested on: Apogee wheat; experiment: Example 2: grain yield in Apogee wheat under water stress; conditions: 30 ppm spray; drought stress
Protocol: as §1, §2
Thirty-two pots of Apogee wheat were grown in a greenhouse under ideal growing conditions. Specifically, wheat was planted in ProMix® growth media and grown for about seven weeks in a growth cabinet at 24/18° C. day/night temperature under a 16/8 hour light/dark photoperiod. Next, spray applications of 0.025% v/v Latron B-1956® in water, 30 ppm ABA, 30 ppm 6BA, and a mixture of 30 ppm ABA and 30 ppm 6BA (n=8) were made using a tank sprayer at Feekes stage 11.0. Plants were then grown with no additional water for the next 3-5 days until drought stress conditions and water-deficit stress-related phenotypes were apparent. Plants were re-watered to bring soil moisture to saturation and grown under optimal conditions until physiological maturity. Plants were then destructively harvested and measured for shoot weight, spike weight, grain yield, yield per spike and total above ground biomass.

[8] = tested on: Barley; experiment: Example 9: grain yield in field barley, Argentina 2020
Protocol: Barley was grown in the field in Pieres, Buenos Aires Province, Argentina from Jun. 15 to Dec. 30, 2020. 2 g/HA ABA, 6 g/HA ABA and mixtures of 2 g/HA ABA and 2 g/HA 6BA and 4 g/HA ABA and 2 g/HA 6BA (n=8) were made using a tank sprayer at the beginning of milk grains (growth stage Zadoks 7.2). Plants were then grown until mature. Plants were then destructively harvested and measured for grain yield.

[9] = tested on: Soybean; experiment: Example 8: grain yield in field soybean, Seymour IL 2020
Protocol: Soybean was grown in the field in Seymour, IL in 2020. Spray applications of water, 2 g/HA ABA, 6 g/HA ABA and a mixture of 2 g/HA ABA and 2 g/HA 6BA (n=8) were made using a tank sprayer at the beginning of seeding (growth stage R4 to R5). Plants were then grown until mature. Plants were then destructively harvested and measured for grain yield.

With `O=C(Nc1ccccc1)Nc1ccnc(Cl)c1` [CPPU, n-(2-chloro-4-pyridyl)-n′-phenylurea] the “Grain Yield” value ([1]; 5 ppm spray) was 6.20 grams, the “Spike Weight” value ([1]; 5 ppm spray) was 8.57 grams and the “Total Above Ground Biomass” value ([1]; 5 ppm spray) was 11.34 grams. The Yield/Spike ([1]; 5 ppm spray) was 0.98 grams, the “Grain Yield” value ([1]; 10 ppm spray) was 6.32 grams and the “Spike Weight” value ([1]; 10 ppm spray) was 8.12 grams. The “Total Above Ground Biomass” value ([1]; 10 ppm spray) was 10.94 grams, the Yield/Spike ([1]; 10 ppm spray) was 1.00 grams and the “Yield of All” value ([2]; 10 ppm spray at R6) was 26.33 grams. For the same molecule, the “Yield of Others” value ([2]; 10 ppm spray at R6) was 11.16 grams, the “Yield of Top 6” value ([2]; 10 ppm spray at R6) was 15.17 grams and the “Yield per Panicle” value ([2]; 10 ppm spray at R6) was 2.22 grams. For the same molecule, the “Yield per Top 6” value ([2]; 10 ppm spray at R6) was 2.53 grams, the “Grain Yield” value ([3]; 10 ppm spray) was 9.69 grams and the “Harvest Index” value ([3]; 10 ppm spray) was 0.56. For the same molecule, the “Spike Weight” value ([3]; 10 ppm spray) was 12.99 grams, the Yield/Spike ([3]; 10 ppm spray) was 1.34 grams and the “Grain Yield” value ([4]; 10 ppm) was 8.28 grams. For the same molecule, the “Spike Weight” value ([4]; 10 ppm) was 11.86 grams, the “Total Above Ground Biomass” value ([4]; 10 ppm) was 15.98 grams and the Yield/Spike ([4]; 10 ppm) was 0.95 grams.
(S)-abscisic acid [ABA] was tested, and the “Grain Yield” value ([5]; 2 g/HA spray at R2-R3) was 225 bushels/acre, the “Grain Yield” value ([5]; 6 g/HA spray at R2-R3) was 234 bushels/acre and the “Grain Yield” value ([1]; 10 ppm spray) was 6.95 grams. For the same molecule, the “Spike Weight” value ([1]; 10 ppm spray) was 9.22 grams, the “Total Above Ground Biomass” value ([1]; 10 ppm spray) was 12.11 grams and the Yield/Spike ([1]; 10 ppm spray) was 1.08 grams. The “Grain Yield” value ([1]; 30 ppm spray) was 6.72 grams, the “Spike Weight” value ([1]; 30 ppm spray) was 8.90 grams and the “Total Above Ground Biomass” value ([1]; 30 ppm spray) was 11.47 grams. The Yield/Spike ([1]; 30 ppm spray) was 1.06 grams, the “Yield of All” value ([2]; 30 ppm spray at R6) was 28.47 grams and the “Yield of Others” value ([2]; 30 ppm spray at R6) was 12.72 grams. For the same molecule, the “Yield of Top 6” value ([2]; 30 ppm spray at R6) was 15.75 grams, the “Yield per Panicle” value ([2]; 30 ppm spray at R6) was 2.34 grams and the “Yield per Top 6” value ([2]; 30 ppm spray at R6) was 2.63 grams. For the same molecule, the “Grain Yield” value ([3]; 30 ppm spray) was 10.24 grams, the “Harvest Index” value ([3]; 30 ppm spray) was 0.55 and the “Spike Weight” value ([3]; 30 ppm spray) was 14.06 grams. For the same molecule, the Yield/Spike ([3]; 30 ppm spray) was 1.40 grams, the “Grain Yield” value ([4]; 30 ppm) was 8.49 grams and the “Spike Weight” value ([4]; 30 ppm) was 11.60 grams. The “Total Above Ground Biomass” value ([4]; 30 ppm) was 15.38 grams, the Yield/Spike ([4]; 30 ppm) was 1.04 grams and the “Yield of All” value [6] was 23.70 grams. For the same molecule, the “Yield of Others” value [6] was 5.22 grams, the “Yield of Top 6” value [6] was 19.14 grams and the “Yield per Panicle” value [6] was 2.95 grams. The “Yield per Top 6” value [6] was 3.19 grams, the “Grain Yield” value [7] was 12.12 grams and the “Shoot Weight” value [7] was 5.04 grams. For the same molecule, the “Spike Weight” value [7] was 15.66 grams, the “Total Above Ground Biomass” value [7] was 20.70 grams and the Yield/Spike [7] was 1.33 grams. The “Grain Yield” value ([8]; 2 g/HA spray at Zadoks 7.2) was 5319, the “Grain Yield” value ([8]; 6 g/HA spray at Zadoks 7.2) was 5114 and the “Grain Yield” value ([9]; 2 g/HA spray at R4 to R5) was 96.57 bushels/acre. The “Grain Yield” value ([9]; 6 g/HA spray at R4 to R5) was 93.80 bushels/acre.
